# Literature values in PubChem BioAssay AID1259409 (Chemical Carcinogenesis Research Information System (CCRIS), 2018).
# System: rodent chemically induced tumor inhibition, incidence and multiplicity
# Assay: CCRIS tumor inhibitor studies
# Settings: for outcome: Carcinogen: NONE, Strain/Sex: APC/MIN/MALE
smiles,measurement,setting,value
NCCCC(N)(C(=O)O)C(F)F (centres undefined),"tumour outcome (control, treated, inhibition, significance)","Carcinogen: N-METHYL-N-NITROSOUREA, 684-93-5, Dose [Inhibitor]: 0.5 ML OF 2% AGENT IN 0.9% SALINE SOLUTION TWICE IN WK 1 THEN ONCE 2 HR POST CARCINOGEN TREATMENT THEN TWICE IN WK 2 (ST, Route [Inhibitor]: INTRAVESICAL, Species: RAT, Strain/Sex: F344/MALE, Target Tissue: Type of Lesion: BLADDER: CARCINOMA, Dose [Carcinogen]: 0.25 MG IN 0.5 ML OF 0.9% SALINE SOLUTION ONCE, Promoter: URINE","31/36 (86%), 27/38 (71%), 17%, not calculated"
same,"tumour outcome (control, treated, inhibition, significance)","Carcinogen: N-METHYL-N-NITROSOUREA, 684-93-5, Dose [Inhibitor]: 2% IN URINE 2/WK FOR 30 WK BEGINNING 1 WK POST CARCINOGEN DOSE (STUDY DURATION: 35 WK), Route [Inhibitor]: INTRAVESICAL, Species: RAT, Strain/Sex: F344/MALE, Target Tissue: Type of Lesion: BLADDER: CARCINOMA, Dose [Carcinogen]: 0.25 MG IN 0.5 ML OF 0.9% SALINE SOLUTION ONCE, Promoter: URINE","25/36 (69%), 13/35 (37%), 46%, p<0.025"
same,"tumour outcome (control, treated, inhibition, significance)","Carcinogen: N-METHYL-N-NITROSOUREA, 684-93-5, Dose [Inhibitor]: 2% IN URINE 2/WK FOR 41 WK BEGINNING 1 WK POST CARCINOGEN DOSE (STUDY DURATION: 50 WK), Route [Inhibitor]: INTRAVESICAL, Species: RAT, Strain/Sex: F344/MALE, Target Tissue: Type of Lesion: BLADDER: CARCINOMA, Dose [Carcinogen]: 0.25 MG IN 0.5 ML OF 0.9% SALINE SOLUTION ONCE, Promoter: URINE","31/36 (86%), 30/38 (79%), 8%, not calculated"
same,outcome,"Dose [Inhibitor]: 0.5% IN DRINKING WATER FOR 2 MONTHS (STUDY DURATION: 2 MONTHS), Route [Inhibitor]: ORAL, Species: MOUSE, Target Tissue: Type of Lesion: DISTAL SMALL INTESTINE: TUMOR, Promoter: NONE","10.38, 3.67, 65%, p<0.001"
same,outcome,"Dose [Inhibitor]: 0.5% IN DRINKING WATER FOR 2 MONTHS (STUDY DURATION: 2 MONTHS), Route [Inhibitor]: ORAL, Species: MOUSE, Target Tissue: Type of Lesion: MIDDLE SMALL INTESTINE: TUMOR, Promoter: NONE","23.75, 19.80, 17%, not significant"
same,outcome,"Dose [Inhibitor]: 0.5% IN DRINKING WATER FOR 2 MONTHS (STUDY DURATION: 2 MONTHS), Route [Inhibitor]: ORAL, Species: MOUSE, Target Tissue: Type of Lesion: PROXIMAL SMALL INTESTINE: TUMOR, Promoter: NONE","7.63, 6.40, 16%, not significant"
same,outcome,"Dose [Inhibitor]: 1.0% IN DRINKING WATER FOR 2 MONTHS (STUDY DURATION: 2 MONTHS), Route [Inhibitor]: ORAL, Species: MOUSE, Target Tissue: Type of Lesion: DISTAL SMALL INTESTINE: TUMOR, Promoter: NONE","10.38, 1.73, 83%, p<0.001"
same,outcome,"Dose [Inhibitor]: 1.0% IN DRINKING WATER FOR 2 MONTHS (STUDY DURATION: 2 MONTHS), Route [Inhibitor]: ORAL, Species: MOUSE, Target Tissue: Type of Lesion: MIDDLE SMALL INTESTINE: TUMOR, Promoter: NONE","23.75, 13.80, 42%,p<0.01"
same,"tumour outcome (control, treated, inhibition, significance)","Carcinogen: UV-A (20%), UV-B (80%) (WESTINGHOUSE FS320 SUNLAMP IN 280-400 NM), Dose [Inhibitor]: 0, 0.4% IN DRINKING WATER FOR 8 WK BEGINNING 22 WK POST CARCINOGEN FIRST DOSE (STUDY DURATION: 30 WK), Route [Inhibitor]: ORAL, Species: MOUSE, Strain/Sex: SKH:HR-1-HBR/FEMALE, Target Tissue: Type of Lesion: SKIN: TUMOR, Dose [Carcinogen]: 90 MJ/CM2 3 TIMES/WK, DOSE INCREASED BY 10% UNTIL REACHED 175 MJ/CM^2, BEGINNING 2 D POST AGENT DOSE, TREATMENT WS STOPP, Promoter: NONE","?/? (100%), ?/? (95%), 5%, data presented graphically, not calculated"
same,"tumour outcome (control, treated, inhibition, significance)","Carcinogen: UV-A (20%), UV-B (80%) (WESTINGHOUSE FS320 SUNLAMP IN 280-400 NM), Dose [Inhibitor]: 0, 0.4% IN DRINKING WATER FOR 18 WK BEGINNING 12 WK POST CARCINOGEN FIRST DOSE (STUDY DURATION: 30 WK), Route [Inhibitor]: ORAL, Species: MOUSE, Strain/Sex: SKH:HR-1-HBR/FEMALE, Target Tissue: Type of Lesion: SKIN: TUMOR, Dose [Carcinogen]: 90 MJ/CM2 3 TIMES/WK, DOSE INCREASED BY 10% UNTIL REACHED 175 MJ/CM^2, BEGINNING 2 D POST AGENT DOSE, TREATMENT WS STOPP, Promoter: NONE","?/? (100%), ?/? (100%), 0%, data presented graphically, not calculated"
same,"tumour outcome (control, treated, inhibition, significance)","Carcinogen: UV-A (20%), UV-B (80%) (WESTINGHOUSE FS320 SUNLAMP IN 280-400 NM), Dose [Inhibitor]: 0, 0.4% IN DRINKING WATER FOR DURATION OF STUDY (STUDY DURATION: 30 WK), Route [Inhibitor]: ORAL, Species: MOUSE, Strain/Sex: SKH:HR-1-HBR/FEMALE, Target Tissue: Type of Lesion: SKIN: TUMOR, Dose [Carcinogen]: 90 MJ/CM2 3 TIMES/WK, DOSE INCREASED BY 10% UNTIL REACHED 175 MJ/CM^2, BEGINNING 2 D POST AGENT DOSE, TREATMENT WS STOPP, Promoter: NONE","?/? (100%), ?/? (73%), 27%, data presented graphically, not calculated"
same,"tumour outcome (control, treated, inhibition, significance)","Carcinogen: UVB IRRADIATION, Dose [Inhibitor]: 0, 1% IN DRINKING WATER FOR DURATION OF STUDY BEGINNING 3 WK PRIOR TO CARCINOGEN TREATMENT (STUDY DURATION: 36 WK), Route [Inhibitor]: ORAL, Species: MOUSE, Strain/Sex: BALB/FEMALE, Target Tissue: Type of Lesion: SKIN: TUMOR, Dose [Carcinogen]: 1273 KJM2 TOTAL DOSE ADMINISTERED IN 30 MIN TREATMENTS 5 D/WK, Promoter: NONE USED","38%, 9%, 76%, p=0.025"
same,"tumour outcome (control, treated, inhibition, significance)","Dose [Inhibitor]: 0, 2% IN DRINKING WATER FOR 3 WK THEN REDUCED TO 1% FOR DURATION OF STUDY (STUDY DURATION: 9 MO), Route [Inhibitor]: ORAL, Species: RAT, Strain/Sex: F344/MALE, Target Tissue: Type of Lesion: LIVER: HEPATOCELLULAR CARCINOMA, Dose [Carcinogen]: 25 UG IN 0.2 ML DMSO 5 D/WK FOR 4 WK, Promoter: NONE USED","40%, 16%, 60%, p<0.01"
same,"tumour outcome (control, treated, inhibition, significance)","Dose [Inhibitor]: 0, 2% IN DRINKING WATER FOR 3 WK THEN REDUCED TO 1% FOR DURATION OF STUDY ADMINISTERED TO RATS MAINTAINED ON CHOLINE-DEF, Route [Inhibitor]: ORAL, Species: RAT, Strain/Sex: F344/MALE, Target Tissue: Type of Lesion: LIVER: HEPATOCELLULAR CARCINOMA, Dose [Carcinogen]: 25 UG IN 0.2 ML DMSO 5 D/WK FOR 4 WK, Promoter: NONE USED","71%, 28%, 61%, not calculated"
